From patent US8710062B2, “Piperazinedione compounds” (Taipei Medical University, priority 2011, dated 2014)
Where a name gives a salt, the structure may show the parent alone.

Tested on: not given
Details: not given

melting point	Structure (SMILES)
228 to 230 °C	O=c1[nH]/c(=C\c2ccc(OCc3cccnc3)cn2)c(=O)[nH]/c1=C\c1ccccc1 (as salt: sulfonic acid salt) [Compound 3, 3-benzylidene-6-((5-(pyridin-3-ylmethoxy)pyridin-2-yl)methylene)piperazine-2,5-dione methanesulfonic acid salt]
266 to 267 °C	O=c1[nH]/c(=C\c2ccc(OCc3ccccn3)cn2)c(=O)[nH]/c1=C\c1ccccc1 (as salt: sulfonic acid salt) [Compound 4, 3-benzylidene-6-((5-(pyridin-2-ylmethoxy)pyridin-2-yl)methylene)piperazine-2,5-dione methanesulfonic acid salt]
280 °C	NC(C(=O)Oc1ccc(/C=c2\[nH]c(=O)/c(=C/c3ccccc3)[nH]c2=O)nc1)c1ccccc1 (stereo not shown) (as salt: trifluoroacetate) [Compound 9, 2-(6-((Z)—((Z)-5-benzylidene-3,6-dioxopiperazin-2-ylidene)methyl)py-ridin-3-yloxy)-2-oxo-1-phenylethanaminium 2,2,2-trifluoroacetate]
285 to 286 °C	NC(Cc1ccccc1)C(=O)Oc1ccc(/C=c2\[nH]c(=O)/c(=C/c3ccccc3)[nH]c2=O)nc1 (stereo not shown) (as salt: trifluoroacetate) [Compound 11, 1-(6-((Z)—((Z)-5-benzylidene-3,6-dioxopiperazin-2-ylidene)methyl)-pyridin-3-yloxy)-1-oxo-3-phenylpropan-2-aminium 2,2,2-trifluoroacetate]
312 to 314 °C	NC(Cc1ccc(O)cc1)C(=O)Oc1ccc(/C=c2\[nH]c(=O)/c(=C/c3ccccc3)[nH]c2=O)nc1 (stereo not shown) (as salt: trifluoroacetate) [Compound 12, 1-(6-((Z)—((Z)-5-benzylidene-3,6-dioxopiperazin-2-ylidene)methyl)pyridin-3-yloxy)-3-(4-hydroxyphenyl)-1-oxopropan-2-aminium 2,2,2-trifluoroacetate]
234 to 235 °C	CN1CCN(C(=O)Oc2ccc(/C=c3\[nH]c(=O)/c(=C/c4ccccc4)[nH]c3=O)nc2)CC1 [Compound 6, 6-((Z)—((Z)-5-benzylidene-3,6-dioxopiperazin-2-ylidene)methyl)pyridin-3-yl-4-methylpiperazine-1-carboxylate]
284 °C (dec.)	O=c1[nH]/c(=C\c2ccc(OCc3ccncc3)cn2)c(=O)n(Cc2ccncc2)/c1=C\c1ccccc1 [Compound 14, (3Z,6Z)-6-benzylidene-3-((5-(pyridin-4-ylmethoxy)pyridin-2-yl)meth-ylene)-1-(pyridin-4-ylmethyl)piperazine-2,5-dione]
286 °C (dec.)	CN(C)CCCOc1cccc(/C=c2\[nH]c(=O)/c(=C/c3ccc(OCc4ccccc4)cn3)[nH]c2=O)c1 [Compound 17, 3-((5-(benzyloxy)pyridin-2-yl)methylene)-6-(3-(3-(dimethylamino)propoxy)benzylidene)piperazine-2,5-dione]
326 °C (dec.)	O=c1[nH]/c(=C\c2ccc(OCCO)cn2)c(=O)n(CCO)/c1=C\c1ccccc1 [Compound 18, 6-benzylidene-3-((5-(2-hydroxyethoxy)pyridin-2-yl)methylene)-1-(2-hydroxyethyl)piperazine-2,5-dione]
262 to 263 °C	CC(=O)N1CC(=O)N/C(=C\c2ccc3ccccc3n2)C1=O [Compound 19, 1-acetyl-3-(quinolin-2-ylmethylene)piperazine-2,5-dione]
374 to 375 °C	O=c1[nH]/c(=C\c2ccc3ccccc3n2)c(=O)[nH]/c1=C\c1ccc2ccccc2n1 [Compound 20, 3,6-bis(quinolin-2-ylmethylene)piperazine-2,5-dione]
305 to 306 °C	O=c1[nH]/c(=C\c2ccc3ccccc3n2)c(=O)[nH]/c1=C\c1cccnc1 [Compound 21, 3-(pyridin-3-ylmethylene)-6-(quinolin-2-ylmethylene)piperazine-2,5-dione]
319 to 320 °C	O=c1[nH]/c(=C\c2ccc3ccccc3n2)c(=O)[nH]/c1=C\c1ccc(F)cc1 [Compound 22, 3-(4-fluorobenzylidene)-6-(quinolin-2-ylmethylene)piperazine-2,5-dione]
348 to 349 °C	O=c1[nH]/c(=C\c2ccc3ccccc3n2)c(=O)[nH]/c1=C\c1ccc(Cl)cc1 [Compound 23, 3-(4-chlorobenzylidene)-6-(quinolin-2-ylmethylene)piperazine-2,5-dione]
288 to 289 °C	O=c1[nH]/c(=C\c2cccs2)c(=O)[nH]/c1=C\c1ccc2ccccc2n1 [Compound 24, 3-(quinolin-2-ylmethylene)-6-(thiophen-2-ylmethylene)piperazine-2,5-dione]
374 to 375 °C	O=c1[nH]/c(=C\c2ccnc3ccccc23)c(=O)[nH]/c1=C\c1ccnc2ccccc12 [Compound 26, 3,6-bis(quinolin-4-ylmethylene)piperazine-2,5-dione]
261 to 262 °C	CC(=O)N1CC(=O)N/C(=C\c2cnc3ccccc3c2)C1=O [Compound 27, 1-acetyl-3-(quinolin-3-ylmethylene)piperazine-2,5-dione]

Structure (SMILES)	melting point
CC(C)(C)OC(=O)NC(Cc1ccccc1)C(=O)Oc1ccc(/C=c2\[nH]c(=O)/c(=C/c3ccccc3)[nH]c2=O)nc1 (stereo not shown) [Compound 10, 6-((Z)—((Z)-5-benzylidene-3,6-dioxopiperazin-2-ylidene)methyl)pyridin-3-yl 2-(tert-butoxycarbonylamino)-3-phenylpropanoate]	188 °C
CC(C)(C)OC(=O)NC(Cc1ccc(OC(C)(C)C)cc1)C(=O)Oc1ccc(/C=c2\[nH]c(=O)/c(=C/c3ccccc3)[nH]c2=O)nc1 (stereo not shown) [Compound 13, 6-((Z)—((Z)-5-benzylidene-3,6-dioxopiperazin-2-ylidene)methyl)pyridin-3-yl-2-(tert-butoxycarbonylamino)-3-(4-tert-butoxyphenyl)propanoate]	210 to 212 °C

Tested on: 60 Human Cancer Cell Lines (NCI-60)
Details: data obtained from the NCI/DTP database (asterisk); cited from earlier work

Structure (SMILES)	pIC50
Nc1nc2[nH]cc(CCc3ccc(C(=O)N[C@@H](CCC(=O)O)C(=O)O)cc3)c2c(=O)[nH]1 [Alimta]	4.97
O=c1[nH]cc(F)c(=O)[nH]1 [Compound 5-FU, 5-FU]	4.76
Nc1ccn([C@@H]2O[C@H](CO)[C@@H](O)C2(F)F)c(=O)n1 [Gemcitabine]	6.82
COc1cc2ncnc(Nc3ccc(F)c(Cl)c3)c2cc1OCCCN1CCOCC1 [Irressa]	5.49
CN(Cc1cnc2nc(N)nc(N)c2n1)c1ccc(C(=O)N[C@@H](CCC(=O)O)C(=O)O)cc1 [MTX]	6.95
CNC(=O)c1cc(Oc2ccc(NC(=O)Nc3ccc(Cl)c(C(F)(F)F)c3)cc2)ccn1 [Mexavar]	5.73
CCN(CC)CCNC(=O)c1c(C)[nH]c(/C=C2\C(=O)Nc3ccc(F)cc32)c1C [Sutent]	5.71
C#Cc1cccc(Nc2ncnc3cc(OCCOC)c(OCCOC)cc23)c1 [Tarceva]	5.26
CC(=O)O[C@@]12CO[C@@H]1C[C@H](O)[C@@]1(C)C(=O)[C@H](O)C3=C(C)[C@@H](OC(=O)[C@H](O)[C@@H](NC(=O)OC(C)(C)C)c4ccccc4)C[C@@](O)([C@@H](OC(=O)c4ccccc4)[C@H]21)C3(C)C [docetxel]	7.66
O=C1[O][Pt]2([NH][C@@H]3CCCC[C@H]3[NH]2)[O]C1=O [eloxatin]	5.65
CCc1c2c(nc3ccc(OC(=O)N4CCC(N5CCCCC5)CC4)cc13)-c1cc3c(c(=O)n1C2)COC(=O)[C@]3(O)CC [irinotecan]	4.85
CC(=O)O[C@H]1C(=O)[C@@]2(C)[C@H]([C@H](OC(=O)c3ccccc3)[C@]3(O)C[C@H](OC(=O)[C@H](O)[C@@H](NC(=O)c4ccccc4)c4ccccc4)C(C)=C1C3(C)C)[C@]1(OC(C)=O)CO[C@@H]1C[C@@H]2O [taxol]	7.84
